PubChem BioAssay AID1963449 (Molecular Pharmacology Branch, DTP, NCI, 2024)

System: 596521-263-R-J1-PDC complex spheroid growth
Assay: Anticancer human tumor 596521-263-R-J1-PDC patient-derived soft tissue sarcoma cell line growth inhibition [Asc]
Details: for IC50: curve of first compound; for viability, T/C: stronger effect = lower value
Procedure, shortened: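 Complex spheroids combining tumor cells with HUVEC endothelial cells and human MSCs, at 37 degrees C, 5% CO2; agents tested alone or combined, half-log dilutions from at or near clinical Cmax, or 10 microM if Cmax unknown.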

[1] = second compound 0.0316 µM, first compound 0.0316 µM
[2] = second compound 0.0316 µM, first compound 0.1 µM
[3] = second compound 0.0316 µM, first compound 0.316 µM
[4] = second compound 0.0316 µM, first compound 1 µM
[5] = second compound 0.0316 µM, first compound 3.16 µM
[6] = second compound 0.0316 µM, first compound 10 µM
[7] = second compound 0.1 µM, first compound 0.0316 µM
[8] = second compound 0.1 µM, first compound 0.1 µM
[9] = second compound 0.1 µM, first compound 0.316 µM
[10] = second compound 0.1 µM, first compound 1 µM
[11] = second compound 0.1 µM, first compound 3.16 µM
[12] = second compound 0.1 µM, first compound 10 µM
[13] = second compound 0.316 µM, first compound 0.0316 µM
[14] = second compound 0.316 µM, first compound 0.1 µM
[15] = second compound 0.316 µM, first compound 0.316 µM
[16] = second compound 0.316 µM, first compound 1 µM
[17] = second compound 0.316 µM, first compound 3.16 µM
[18] = second compound 0.316 µM, first compound 10 µM
[19] = second compound 1 µM, first compound 0.0316 µM
[20] = second compound 1 µM, first compound 0.1 µM
[21] = second compound 1 µM, first compound 0.316 µM
[22] = second compound 1 µM, first compound 1 µM
[23] = second compound 1 µM, first compound 3.16 µM
[24] = second compound 1 µM, first compound 10 µM
[25] = second compound 3.16 µM, first compound 0.0316 µM
[26] = second compound 3.16 µM, first compound 0.1 µM
[27] = second compound 3.16 µM, first compound 0.316 µM
[28] = second compound 3.16 µM, first compound 1 µM
[29] = second compound 3.16 µM, first compound 3.16 µM
[30] = second compound 3.16 µM, first compound 10 µM
[31] = second compound 10 µM, first compound 0.0316 µM
[32] = second compound 10 µM, first compound 0.1 µM
[33] = second compound 10 µM, first compound 0.316 µM
[34] = second compound 10 µM, first compound 1 µM
[35] = second compound 10 µM, first compound 3.16 µM
[36] = second compound 10 µM, first compound 10 µM
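Further: spheroids exposed to compounds for 7 days.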

## C=C(F)C(=O)N1CCN(c2nc(OCC3CCCN3C)nc3c2CCN(c2cccc4cccc(Cl)c24)C3)CC1CC#N (stereo unspecified) + Cc1c(S(C)(=O)=O)c(-c2cc(F)cc(N3CCN(c4ccc(NS(=O)(=O)c5ccc(NC(CCN6CCC(C(=O)OCCCP(=O)(O)O)CC6)CSc6ccccc6)c(S(=O)(=O)C(F)(F)F)c5)cc4)CC3)c2)c(-c2ccc(Cl)cc2)n1C(C)C
Second compound 0.0316 µM
  IC50: 4960 nM
Second compound 0.1 µM
  IC50: 4520 nM
Second compound 0.316 µM
  IC50: 4250 nM
Second compound 1 µM
  IC50: 2760 nM
Second compound 3.16 µM
  IC50: 660 nM
Second compound 10 µM
  IC50: 326 nM
[1]
  viability, T/C: 110%
[2]
  viability, T/C: 98.3%
[3]
  viability, T/C: 87.6%
[4]
  viability, T/C: 101%
[5]
  viability, T/C: 81.9%
[6]
  viability, T/C: 0.22%
[7]
  viability, T/C: 98.4%
[8]
  viability, T/C: 97.9%
[9]
  viability, T/C: 93.9%
[10]
  viability, T/C: 91.1%
[11]
  viability, T/C: 72.8%
[12]
  viability, T/C: 0.18%
[13]
  viability, T/C: 104%
[14]
  viability, T/C: 98%
[15]
  viability, T/C: 92.4%
[16]
  viability, T/C: 89.6%
[17]
  viability, T/C: 68.2%
[18]
  viability, T/C: 0.17%
[19]
  viability, T/C: 84.3%
[20]
  viability, T/C: 87%
[21]
  viability, T/C: 76.7%
[22]
  viability, T/C: 80%
[23]
  viability, T/C: 46%
[24]
  viability, T/C: 1.18%
[25]
  viability, T/C: 79.5%
[26]
  viability, T/C: 67.4%
[27]
  viability, T/C: 52.4%
[28]
  viability, T/C: 50.5%
[29]
  viability, T/C: 26.9%
[30]
  viability, T/C: 0.2%
[31]
  viability, T/C: 58.4%
[32]
  viability, T/C: 50.1%
[33]
  viability, T/C: 48.3%
[34]
  viability, T/C: 44.2%
[35]
  viability, T/C: 22%
[36]
  viability, T/C: 1.02%

## C=CC(=O)N1CCN(c2nc(=O)n(-c3c(C)ccnc3C(C)C)c3nc(-c4c(O)cccc4F)c(F)cc23)C(C)C1 (stereo unspecified) + Cc1c(S(C)(=O)=O)c(-c2cc(F)cc(N3CCN(c4ccc(NS(=O)(=O)c5ccc(NC(CCN6CCC(C(=O)OCCCP(=O)(O)O)CC6)CSc6ccccc6)c(S(=O)(=O)C(F)(F)F)c5)cc4)CC3)c2)c(-c2ccc(Cl)cc2)n1C(C)C
Second compound 0.0316 µM
  IC50: > 10000 nM
Second compound 0.1 µM
  IC50: > 10000 nM
Second compound 0.316 µM
  IC50: > 10000 nM
Second compound 1 µM
  IC50: 6360 nM
Second compound 3.16 µM
  IC50: 2980 nM
Second compound 10 µM
  IC50: 1350 nM
[1]
  viability, T/C: 83.2%
[2]
  viability, T/C: 84.6%
[3]
  viability, T/C: 95%
[4]
  viability, T/C: 98.9%
[5]
  viability, T/C: 94.9%
[6]
  viability, T/C: 65.8%
[7]
  viability, T/C: 87.3%
[8]
  viability, T/C: 93.9%
[9]
  viability, T/C: 93.6%
[10]
  viability, T/C: 107%
[11]
  viability, T/C: 95.8%
[12]
  viability, T/C: 63%
[13]
  viability, T/C: 83.7%
[14]
  viability, T/C: 82.5%
[15]
  viability, T/C: 80.1%
[16]
  viability, T/C: 99.9%
[17]
  viability, T/C: 87.1%
[18]
  viability, T/C: 59.9%
[19]
  viability, T/C: 82.3%
[20]
  viability, T/C: 75.9%
[21]
  viability, T/C: 81%
[22]
  viability, T/C: 73.5%
[23]
  viability, T/C: 70.5%
[24]
  viability, T/C: 37.1%
[25]
  viability, T/C: 66.6%
[26]
  viability, T/C: 63%
[27]
  viability, T/C: 62.6%
[28]
  viability, T/C: 63.4%
[29]
  viability, T/C: 49.3%
[30]
  viability, T/C: 36%
[31]
  viability, T/C: 55.9%
[32]
  viability, T/C: 53%
[33]
  viability, T/C: 60.1%
[34]
  viability, T/C: 52.4%
[35]
  viability, T/C: 40.8%
[36]
  viability, T/C: 30.6%

## CCN1C(C(=O)NC23CCC(C(=O)O)(CC2)CC3)C(c2cccc(Cl)c2F)C2(C(=O)Nc3cc(Cl)ccc32)C12CCCCC2 (stereo unspecified) + Cc1c(S(C)(=O)=O)c(-c2cc(F)cc(N3CCN(c4ccc(NS(=O)(=O)c5ccc(NC(CCN6CCC(C(=O)OCCCP(=O)(O)O)CC6)CSc6ccccc6)c(S(=O)(=O)C(F)(F)F)c5)cc4)CC3)c2)c(-c2ccc(Cl)cc2)n1C(C)C
Second compound 0.0316 µM
  IC50: > 3000 nM
Second compound 0.1 µM
  IC50: > 3000 nM
Second compound 0.316 µM
  IC50: > 3000 nM
Second compound 1 µM
  IC50: 2380 nM
Second compound 3.16 µM
  IC50: 459 nM
Second compound 10 µM
  IC50: 133 nM
Second compound 0.0316 µM, first compound 0.00949 µM
  viability, T/C: 94.6%
Second compound 0.0316 µM, first compound 0.03 µM
  viability, T/C: 97.5%
Second compound 0.0316 µM, first compound 0.0949 µM
  viability, T/C: 94.3%
Second compound 0.0316 µM, first compound 0.3 µM
  viability, T/C: 90.8%
Second compound 0.0316 µM, first compound 0.949 µM
  viability, T/C: 87.5%
Second compound 0.0316 µM, first compound 3 µM
  viability, T/C: 80.7%
Second compound 0.1 µM, first compound 0.00949 µM
  viability, T/C: 89.5%
Second compound 0.1 µM, first compound 0.03 µM
  viability, T/C: 94.8%
Second compound 0.1 µM, first compound 0.0949 µM
  viability, T/C: 95.9%
Second compound 0.1 µM, first compound 0.3 µM
  viability, T/C: 112%
Second compound 0.1 µM, first compound 0.949 µM
  viability, T/C: 87.7%
Second compound 0.1 µM, first compound 3 µM
  viability, T/C: 73.4%
Second compound 0.316 µM, first compound 0.00949 µM
  viability, T/C: 98.7%
Second compound 0.316 µM, first compound 0.03 µM
  viability, T/C: 92.4%
Second compound 0.316 µM, first compound 0.0949 µM
  viability, T/C: 84.7%
Second compound 0.316 µM, first compound 0.3 µM
  viability, T/C: 97.1%
Second compound 0.316 µM, first compound 0.949 µM
  viability, T/C: 83%
Second compound 0.316 µM, first compound 3 µM
  viability, T/C: 54.1%
Second compound 1 µM, first compound 0.00949 µM
  viability, T/C: 88.6%
Second compound 1 µM, first compound 0.03 µM
  viability, T/C: 76%
Second compound 1 µM, first compound 0.0949 µM
  viability, T/C: 67.2%
Second compound 1 µM, first compound 0.3 µM
  viability, T/C: 83.1%
Second compound 1 µM, first compound 0.949 µM
  viability, T/C: 62.7%
Second compound 1 µM, first compound 3 µM
  viability, T/C: 46.1%
Second compound 3.16 µM, first compound 0.00949 µM
  viability, T/C: 64.5%
Second compound 3.16 µM, first compound 0.03 µM
  viability, T/C: 71%
Second compound 3.16 µM, first compound 0.0949 µM
  viability, T/C: 54.8%
Second compound 3.16 µM, first compound 0.3 µM
  viability, T/C: 57.1%
Second compound 3.16 µM, first compound 0.949 µM
  viability, T/C: 42.2%
Second compound 3.16 µM, first compound 3 µM
  viability, T/C: 24.2%
Second compound 10 µM, first compound 0.00949 µM
  viability, T/C: 50.8%
Second compound 10 µM, first compound 0.03 µM
  viability, T/C: 53%
Second compound 10 µM, first compound 0.0949 µM
  viability, T/C: 51.7%
Second compound 10 µM, first compound 0.3 µM
  viability, T/C: 46.8%
Second compound 10 µM, first compound 0.949 µM
  viability, T/C: 33.8%
Second compound 10 µM, first compound 3 µM
  viability, T/C: 18.8%
